Test results reported in US7282507B2, “Indole derivatives as selective androgen receptor modulators (SARMS)” (Janssen Pharmaceutica N.V., priority 2004, dated 2007).
Note: key: 'active' if the non weight adjusted prostate weight was ≦40 mg or the % Inhibition prostate weight, body weight adjusted was ≧40% @ 2 mg/day dosage; ID50's, if determined, of ≦15 mg/day also indicated an 'active' compound; listed herein as 'inactive' as they did not meet the specified criteria defined above.

Each compound was assayed on testosterone-enhanced ventral prostate and seminal vesicle weights (assay: Ventral Prostate and Seminal Vesicle Weight in vivo Assay). Settings: immature castrated male Sprague Dawley rats, once daily for five days, usually orally 40 mg/kg, with testosterone propionate 2 mg/kg s.c.
Set-up: species or system rat
Method: Immature (approximately 50 g) castrated male Sprague Dawley rats (Charles River) were treated once daily for five days with test compound (usually given orally at 40 mg/kg in a volume of 0.3 mL, in 30% cyclodextrin or 0.5% methylcellulose vehicle) and with testosterone propionate (given subcutaneously by injection at the nape of the neck at 2 mg/kg, in a volume of 0.1 mL in sesame oil). On the sixth day, the rats were euthanized by asphyxiation in carbon dioxide. Ventral prosatates and seminal vesicles were removed and their wet weights determined.
A test compound was said to be “active” if the non weight adjusted prostate weight was ≦40 mg or the % Inhibition prostate weight, body weight adjusted was ≧40% @ 2 mg/day dosage.
In the case of `CCSCC(C)(O)c1cc2cc(C)c(C(F)(F)F)cc2[nH]1` (racemic) [Compound 414], the “active / inactive: inhibition of testosterone-enhanced prostate weight” value (“active / inactive: inhibition” below) is reported as “inactive”.
`CCSCC(C)(O)c1cc2cc(N)c(C(F)(F)F)cc2[nH]1` (stereo not shown) [Compound 166] was tested, and the “active / inactive: inhibition” value was “inactive”.
`CCSCC(C)(O)c1[nH]c2cc(C(F)(F)F)c(C#N)cc2c1I` (single isomer, unassigned) [Compound 349] was tested, and the “active / inactive: inhibition” value was “active”.
With `CC(O)(CSCc1ccccn1)c1cc2cc([N+](=O)[O-])c(C(F)(F)F)cc2[nH]1` (racemic) [Compound 204] the “active / inactive: inhibition” value was “inactive”.
In the case of `OC1(c2cc3cc(Cl)c(C(F)(F)F)cc3[nH]2)CCSC1` (racemic) [Compound 14], the “active / inactive: inhibition” value is reported as “inactive”.
In the case of `CC[S+]([O-])CC(C)(O)c1[nH]c2cc(C(F)(F)F)c(C#N)cc2c1C` (mixture of isomers) [Compound 319], the “active / inactive: inhibition” value is reported as “active”.
In the case of `CCSCC(C)(O)c1[nH]c2cc(C(F)(F)F)c(C#N)cc2c1C#C[Si](C)(C)C` (racemic) [Compound 325], the “active / inactive: inhibition” value is reported as “inactive”.
`CCSCC(C)(O)c1c(C)c2cc(C#N)c(C(F)(F)F)cc2n1C` (single isomer, unassigned) [Compound 318] was tested, and the “active / inactive: inhibition” value was “inactive”.
In the case of `CCSCC(C)(O)c1cc2cc(C#N)c(C(F)(F)F)cc2n1CC(F)(F)F` (racemic) [Compound 237], the “active / inactive: inhibition” value is reported as “active”.
`CC[S+]([O-])CC(C)(O)c1[nH]c2cc(C(F)(F)F)c(C#N)cc2c1C` (mixture of isomers) [Compound 245] was tested, and the “active / inactive: inhibition” value was “inactive”.
In the case of `N#Cc1cc2cc(C3(O)CCSC3)[nH]c2cc1C(F)(F)F` (racemic) [Compound 15], the “active / inactive: inhibition” value is reported as “inactive”.
In the case of `CCSCC(O)(CC)c1cc2cc(Cl)c(C(F)(F)F)cc2[nH]1` (racemic) [Compound 181], the “active / inactive: inhibition” value is reported as “active”.
With `CCSCC(C)(O)c1cc2cc([N+](=O)[O-])c(C(F)(F)F)cc2[nH]1` (racemic) [Compound 153] the “active / inactive: inhibition” value was “inactive”.
With `CCSCC(C)(O)c1cc2cc(Cl)c(C#N)cc2[nH]1` (single isomer, unassigned) [Compound 228] the “active / inactive: inhibition” value was “inactive”.
`CC(C)(O)c1[nH]c2cc(C(F)(F)F)c([N+](=O)[O-])cc2c1Br` [Compound 277] was tested, and the “active / inactive: inhibition” value was “active”.
In the case of `CSCC(O)c1cc2cc(C#N)c(C(F)(F)F)cc2[nH]1` (racemic) [Compound 408], the “active / inactive: inhibition” value is reported as “inactive”.
With `CCS(=O)(=O)CC(C)(O)c1cc2cc(C#N)c(C(F)(F)F)cc2[nH]1` (single isomer, unassigned) [Compound 397] the “active / inactive: inhibition” value was “inactive”.
With `C#Cc1c(C(C)(O)CSCC)[nH]c2cc(C(F)(F)F)c(C#N)cc12` (racemic) [Compound 326] the “active / inactive: inhibition” value was “inactive”.
For `Cc1c(C(C)(C)O)[nH]c2cc(C(F)(F)F)c([N+](=O)[O-])cc12` [Compound 290], the “active / inactive: inhibition” value was “inactive”.
For `CC(O)(c1[nH]c2cc(C(F)(F)F)c(C#N)cc2c1I)C(F)(F)F` (racemic) [Compound 330], the “active / inactive: inhibition” value was “active”.
With `CCSCC(C)(O)c1cc2cc(C#N)c(Cl)cc2[nH]1` (racemic) [Compound 224] the “active / inactive: inhibition” value was “active”.
In the case of `CCS(=O)(=O)CC(C)(O)c1cc2cc(C#N)c(C(F)(F)F)cc2[nH]1` (racemic) [Compound 407], the “active / inactive: inhibition” value is reported as “inactive”.
With `CC(C)(O)c1cc2cc(Cl)c(C(F)(F)F)cc2n1S(C)(=O)=O` [Compound 284] the “active / inactive: inhibition” value was “active”.
`CCSCC(O)(CSCC)c1cc2cc([N+](=O)[O-])c(C(F)(F)F)cc2[nH]1` [Compound 13] was tested, and the “active / inactive: inhibition” value was “inactive”.
For `CC(C)(O)c1[nH]c2cc(C(F)(F)F)c(Cl)cc2c1Cl` [Compound 282], the “active / inactive: inhibition” value was “inactive”.
In the case of `CC(C)(O)c1[nH]c2cc(C(F)(F)F)c(Cl)cc2c1I` [Compound 279], the “active / inactive: inhibition” value is reported as “inactive”.
For `CC(C)(O[Si](C)(C)C)c1cc2cc(Cl)c(C(F)(F)F)cc2n1S(C)(=O)=O` [Compound 270], the “active / inactive: inhibition” value was “inactive”.
With `CCSCC(O)(c1cc2cc(C#N)c(C(F)(F)F)cc2[nH]1)C(F)(F)F` (racemic) [Compound 327] the “active / inactive: inhibition” value was “active”.
`CCSCC(C)(O)c1cc2cc(C#N)ccc2[nH]1` (racemic) [Compound 403] was tested, and the “active / inactive: inhibition” value was “inactive”.
`CC(C)(O)c1cc2cc([N+](=O)[O-])c(C(F)(F)F)cc2n1S(C)(=O)=O` [Compound 273] was tested, and the “active / inactive: inhibition” value was “inactive”.
`CCSCC(C)(O)c1cc2cc(Cl)ccc2[nH]1` (racemic) [Compound 353] was tested, and the “active / inactive: inhibition” value was “inactive”.
`CC(O)(c1cc2cc(C#N)c(C(F)(F)F)cc2n1CC#N)C(F)(F)F` (racemic) [Compound 331] was tested, and the “active / inactive: inhibition” value was “active”.
For `CCSCC(C)(O)c1c(C)c2cc(C#N)c(C(F)(F)F)cc2n1C` (single isomer, unassigned) [Compound 317], the “active / inactive: inhibition” value was “inactive”.
In the case of `CC(O)(c1[nH]c2cc(C(F)(F)F)c(C#N)cc2c1Cl)C(F)(F)F` (single isomer, unassigned) [Compound 345], the “active / inactive: inhibition” value is reported as “active”.
`CCSCC(O)c1[nH]c2cc(C(F)(F)F)c(C#N)cc2c1I` (racemic) [Compound 411] was tested, and the “active / inactive: inhibition” value was “inactive”.
For `CC(O)(COc1ccc(C#N)cc1)c1cc2cc(C#N)c(C(F)(F)F)cc2[nH]1` (stereo not shown) [Compound 426, 2-[2-(4-Cyano-phenoxy)-1-hydroxy-1-methyl-ethyl]-6-trifluoromethyl-1H -indole-5-carbonitrile], the “active / inactive: inhibition” value was “inactive”.
For `CC(O)(COc1ccc(C#N)c(C(F)(F)F)c1)c1cc2cc(C#N)c(C(F)(F)F)cc2[nH]1` (stereo not shown) [Compound 429, 2-[2-(4-Cyano-3-trifluoromethyl-phenoxy)-1-hydroxy-1-methyl-ethyl]-6-trifluoromethyl-1H-indole-5-carbonitrile], the “active / inactive: inhibition” value was “inactive”.
`CC(C)(O)c1cc2cc(Cl)c(Cl)cc2[nH]1` [Compound 405] was tested, and the “active / inactive: inhibition” value was “inactive”.
With `CC(C)(O)c1[nH]c2cc(C(F)(F)F)c([N+](=O)[O-])cc2c1C#N` [Compound 291] the “active / inactive: inhibition” value was “active”.
With `CC(C)(O)c1[nH]c2cc(C(F)(F)F)c(C#N)cc2c1C#N` [Compound 295] the “active / inactive: inhibition” value was “inactive”.
In the case of `CCSCC(C)(O)c1cc2cc(C#N)c(C(F)(F)F)cc2n1CC` (racemic) [Compound 243], the “active / inactive: inhibition” value is reported as “active”.
For `CCSCC(C)(O)c1[nH]c2cc(C(F)(F)F)c([N+](=O)[O-])cc2c1I` (single isomer, unassigned) [Compound 244], the “active / inactive: inhibition” value was “active”.
With `CC(C)(O)c1cc2cc(Cl)c(C(F)(F)F)cc2[nH]1` [Compound 285] the “active / inactive: inhibition” value was “inactive”.
For `O=[N+]([O-])c1cc2cc(C3(O)CCSC3)[nH]c2cc1C(F)(F)F` (racemic) [Compound 18], the “active / inactive: inhibition” value was “inactive”.
For `CCSCC(C)(O)c1[nH]c2cc(C(F)(F)F)c(C#N)cc2c1I` (racemic) [Compound 324], the “active / inactive: inhibition” value was “inactive”.
`CC(C)(O)c1[nH]c2cc(C(F)(F)F)c(C#N)cc2c1Br` [Compound 288] was tested, and the “active / inactive: inhibition” value was “active”.
With `COCn1c(C(C)(O)C(F)(F)F)cc2cc(C#N)c(C(F)(F)F)cc21` (racemic) [Compound 332] the “active / inactive: inhibition” value was “active”.
In the case of `CCS(=O)(=O)CC(C)(O)c1cc2cc([N+](=O)[O-])c(C(F)(F)F)cc2n1C` (single isomer, unassigned) [Compound 250], the “active / inactive: inhibition” value is reported as “active”.
With `CCSCC(C)(O)c1cc2cc(C#N)c(C)cc2[nH]1` (racemic) [Compound 446] the “active / inactive: inhibition” value was “inactive”.
